Usually half-life stands for the time needed for the level to fall by half in the phase considered. Usually Tmax stands for the time from dosing to the highest level. As a reminder, the bioavailability is the share of a dose that reaches the circulation, judged against a reference dose that is usually intravenous. A low value points to poor availability. What is called EC50 is the concentration giving half of the maximal effect.

Data on five compounds can be found in patent US10253081B2, “Glucagon analogues” (Zealand Pharma A/S, priority 2012, dated 2019).

A short description of data set [1]: Pharmacokinetic parameters after subcutaneous and intravenous administration to mice. The class given is in vivo. To be noted: male, mouse, plasma, 20 nmol/kg, C57Bl/6J mice; for half-life: read-out: Terminal half life (converted); for MRT: read-out: Mean Residence Time. The method, then: Pharmacokinetic parameters of the test compounds were determined after subcutaneous and intravenous administration to C57Bl/6J mice.
8 week old male C57Bl/6J mice were obtained from Taconic (Denmark) weighing approximately 20-25 g at time of arrival at the test facility. The mice were caged in European standard cages type III with light cycle of 12-hour dark and 12-hour light (lights on 06.00). Both diet, Altromin 1324 (Altromin, Germany), and water was administered ad libitum during the whole experimental period. The 8-11 week animals were imported to the laboratory at least 7 days before the start up of the experimental procedure in order to assure proper acclimatization. After sampling the mice were euthanized by cervical dislocation.
The compounds were first dissolved in 0.096% aqueous ammonia to a nominal concentration of 2 mg/ml, and then diluted to the desired dosing strength (4 μM) in sterile PBS containing 25 mM phosphate buffer, pH 7.4. Subcutaneous and intravenous injections corresponding to 20 nmol/kg were given. The GLP-1-glucagon dual agonists were administered for subcutaneous dosing in the neck region and via a lateral tail vein for intravenous dosing.
Blood samples (250 μl) were collected from the periorbital plexus at time points 0.5, 2, 4, 6, 12, 16, 20, 24 h for subcutaneous and 10, 30 min, 3, 6, 12, 18, 24 h for intravenous administration into ice-chilled K3EDTA tubes and centrifuged for 5 minutes at 4° C. within 20 minutes of sampling. Plasma (>100 μl) was separated to ice-chilled Micronic tubes, immediately frozen, and kept at −70° C. until analysed for plasma concentration for the respective GLP-1-glucagon compound using LC-MS/MS. Individual plasma concentration-time profiles were analysed by a non-compartmental approach in WinNonLin v6.3 (Pharsight inc, Mountain View, Calif., USA), and the resulting pharmacokinetic parameters determined.

Data set [2] has as its target T1, human glucagon receptor (Glucagon-R) (Homo sapiens, UniProt P47871).
T1 construct: expressed in transfected cells
The experiment in a line: Glucagon receptor efficacy assay (cAMP AlphaScreen, CHO cells). It counts as cell-based. The conditions noted are these: Table 1A; CHO cells expressing human Glucagon-R, cAMP; read-out: EC50 hGCGR CHO-K1. The method in brief:
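Stably transfected CHO clones expressing human GLP-1R or glucagon receptor were treated with increasing peptide concentrations for 15 min at room temperature in KRBH containing 0.1 mM IBMX. After lysis, cAMP was quantified by AlphaScreen; EC50 and efficacy relative to GLP-1 or glucagon reference came from curve fitting.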
Background: Bead proximity is the source of the signal in Alpha formats.

The target in data set [3] is T2, endogenous glucagon receptor (Rattus norvegicus, UniProt P30082).
T2 construct: Agonistic activity of the test compounds on endogenous glucagon receptor; endogenous in cells; host or cells: primary rat hepatocytes
T2 sequence (P30082 27-485): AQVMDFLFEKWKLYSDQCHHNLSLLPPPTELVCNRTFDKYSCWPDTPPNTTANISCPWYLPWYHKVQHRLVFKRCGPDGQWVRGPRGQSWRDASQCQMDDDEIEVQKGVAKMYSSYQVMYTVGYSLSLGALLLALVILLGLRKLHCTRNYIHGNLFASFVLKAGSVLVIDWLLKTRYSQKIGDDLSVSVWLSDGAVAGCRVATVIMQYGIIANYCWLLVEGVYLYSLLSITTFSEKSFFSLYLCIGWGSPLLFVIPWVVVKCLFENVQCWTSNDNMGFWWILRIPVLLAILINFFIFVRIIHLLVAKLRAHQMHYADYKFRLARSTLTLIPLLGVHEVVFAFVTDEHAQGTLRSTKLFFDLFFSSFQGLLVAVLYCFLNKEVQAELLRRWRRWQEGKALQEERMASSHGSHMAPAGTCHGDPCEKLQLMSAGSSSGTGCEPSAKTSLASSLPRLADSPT
Kind of data set: Agonistic activity on endogenous glucagon receptor (glycogen synthesis rate in primary rat hepatocytes). It counts as cell-based. The conditions noted are these: inhibition of glycogen synthesis rate, 3 hours, read-out: EC50 GLP-1R Rat hepat. The method in brief: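 Primary rat hepatocytes (40,000 cells/well, cultured 24 h) incubated 3 h with compound in KRBH buffer with 0.1% BSA, 22.5 mM glucose and D-[U14C]glucose. 14C incorporated into precipitated glycogen counted, background-subtracted and expressed as % of 0.1% DMSO vehicle (100% CTL). pEC50 from cpm versus log concentration; agonism lowers glycogen synthesis.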

Values joined by “and” are separate entries in the source; they are usually repeats but may differ in a detail not shown here. Equal values may be shown once. Read-outs that look alike come from different tables or passages of the source. *1 amine or outer side, *2 acyl side, *3 side chain or, on linkers, in order; H or OH if unused. Where a SMILES comes first, the peptide text is derived from it. Side-chain parts run from the residue outwards. [ ]: non-standard residue; d: D form. The star is where a group is joined. γGlu = O=C(O)[C@H](CCC(=O)[*:2])N[*:1]; Palmitoyl = CCCCCCCCCCCCCCCC(=O)*; Aib = CC(C)(N)C(=O)O

T1 sequence (P47871 26-477): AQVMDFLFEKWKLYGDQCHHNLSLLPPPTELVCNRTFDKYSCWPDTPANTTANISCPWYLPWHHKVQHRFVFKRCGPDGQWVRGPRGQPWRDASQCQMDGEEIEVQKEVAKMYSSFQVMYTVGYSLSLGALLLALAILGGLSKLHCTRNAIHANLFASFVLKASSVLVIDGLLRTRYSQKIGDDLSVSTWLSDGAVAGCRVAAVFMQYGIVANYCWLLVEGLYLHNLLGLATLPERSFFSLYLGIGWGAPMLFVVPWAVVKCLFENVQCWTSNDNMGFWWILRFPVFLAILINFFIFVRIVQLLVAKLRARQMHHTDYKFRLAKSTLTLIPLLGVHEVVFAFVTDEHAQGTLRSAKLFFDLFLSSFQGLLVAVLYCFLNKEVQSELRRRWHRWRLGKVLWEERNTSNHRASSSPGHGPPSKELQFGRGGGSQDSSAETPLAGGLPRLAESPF

As for `CCCCCCCCCCCCCCCC(=O)N[C@@H](CCC(=O)NCCCC[C@H](NC(=O)[C@H](CO)NC(=O)[C@H](CC(=O)O)NC(=O)[C@H](CC(C)C)NC(=O)[C@H](Cc1ccc(O)cc1)NC(=O)[C@H](CCCCN)NC(=O)[C@H](CO)NC(=O)[C@H](Cc1ccc(O)cc1)NC(=O)[C@H](CC(=O)O)NC(=O)[C@H](CO)NC(=O)[C@@H](NC(=O)[C@H](Cc1ccccc1)NC(=O)[C@@H](NC(=O)CNC(=O)[C@H](CCC(N)=O)NC(=O)C(C)(C)NC(=O)[C@@H](N)Cc1c[nH]cn1)[C@@H](C)O)[C@@H](C)O)C(=O)N[C@@H](C)C(=O)N[C@@H](C)C(=O)N[C@@H](Cc1c[nH]cn1)C(=O)N[C@@H](CC(=O)O)C(=O)N[C@@H](Cc1ccccc1)C(=O)N[C@H](C(=O)N[C@@H](CCC(=O)O)C(=O)N[C@@H](Cc1c[nH]c2ccccc12)C(=O)N[C@@H](CC(C)C)C(=O)N[C@@H](CC(C)C)C(=O)N[C@@H](CO)C(=O)O)C(C)C)C(=O)O` [Compound 1, H-H-Aib-QGTFTSDYSKYLDS-K(Hexadecanoyl-isoGlu)-AAHDFVEWLLS-OH] (H-H[Aib]QGTFTSDYSKYLDSK([γGlu-Palmitoyl])AAHDFVEWLLS-OH), in data set [1] (IV), the clearance is 0.17 mL/min/kg and the half-life was 5.2 h. For the same compound, in data set [1] (SC), the time of peak concentration (Tmax) is 4 h, the bioavailability is 52%, the MRT worked out at 12.6 h and the half-life was 6.2 h. Besides, the EC50 in data set [2] was determined as 0.9 nM. Moreover, the EC50 in data set [3] is 0.13 nM and 0.02 nM.

On to `CCCCCCCCCCCCCCCC(=O)N[C@@H](CCC(=O)NCCCC[C@H](NC(=O)[C@H](CO)NC(=O)[C@H](CC(=O)O)NC(=O)[C@H](CC(C)C)NC(=O)[C@H](Cc1ccc(O)cc1)NC(=O)[C@H](CCCCN)NC(=O)[C@H](CO)NC(=O)[C@H](Cc1ccc(O)cc1)NC(=O)[C@H](CC(=O)O)NC(=O)[C@H](CO)NC(=O)[C@@H](NC(=O)[C@H](Cc1ccccc1)NC(=O)[C@@H](NC(=O)CNC(=O)[C@H](CCC(N)=O)NC(=O)[C@H](CO)NC(=O)[C@@H](N)Cc1c[nH]cn1)[C@@H](C)O)[C@@H](C)O)C(=O)N[C@@H](C)C(=O)N[C@@H](C)C(=O)N[C@@H](Cc1c[nH]cn1)C(=O)N[C@@H](CC(=O)O)C(=O)N[C@@H](Cc1ccccc1)C(=O)N[C@H](C(=O)N[C@@H](CCC(=O)O)C(=O)N[C@@H](Cc1c[nH]c2ccccc12)C(=O)N[C@@H](CC(C)C)C(=O)N[C@@H](CC(C)C)C(=O)N[C@@H](CO)C(=O)N[C@@H](C)C(=O)O)C(C)C)C(=O)O` [Compound 2, H-HSQGTFTSDYSKYLDS-K(Hexadecanoyl-isoGlu)-AAHDFVEWLLSA-OH] (H-HSQGTFTSDYSKYLDSK([γGlu-Palmitoyl])AAHDFVEWLLSA-OH), for which, in data set [1] (IV), the clearance is 0.185 mL/min/kg and the half-life was 5 h. Also, in data set [1] (SC), the Tmax was determined as 4 h, the bioavailability is 59%, the MRT was found to be 11.2 h and the half-life is 5.1 h. In addition, the EC50 in data set [2] was determined as 0.31 nM. For the same compound, in data set [3], the EC50 came out at 0.43 nM.

On to `CCCCCCCCCCCCCCCC(=O)N[C@@H](CCC(=O)NCCCC[C@H](NC(=O)[C@H](CO)NC(=O)[C@H](CC(=O)O)NC(=O)[C@H](CC(C)C)NC(=O)[C@H](Cc1ccc(O)cc1)NC(=O)[C@H](CCCCN)NC(=O)[C@H](CO)NC(=O)[C@H](Cc1ccc(O)cc1)NC(=O)[C@H](CC(=O)O)NC(=O)[C@H](CO)NC(=O)[C@@H](NC(=O)[C@H](Cc1ccccc1)NC(=O)[C@@H](NC(=O)CNC(=O)[C@H](CCC(N)=O)NC(=O)[C@H](CO)NC(=O)[C@@H](N)Cc1c[nH]cn1)[C@@H](C)O)[C@@H](C)O)C(=O)N[C@@H](C)C(=O)N[C@@H](C)C(=O)N[C@@H](Cc1c[nH]cn1)C(=O)N[C@@H](CC(=O)O)C(=O)N[C@@H](Cc1ccccc1)C(=O)N[C@H](C(=O)N[C@@H](CCC(=O)O)C(=O)N[C@@H](Cc1c[nH]c2ccccc12)C(=O)N[C@@H](CC(C)C)C(=O)N[C@@H](CC(C)C)C(=O)N[C@@H](CCCNC(=N)N)C(=O)N[C@@H](C)C(=O)O)C(C)C)C(=O)O` [Compound 3, H-HSQGTFTSDYSKYLDS-K(Hexadecanoyl-isoGlu)-AAHDFVEWLLRA-OH] (H-HSQGTFTSDYSKYLDSK([γGlu-Palmitoyl])AAHDFVEWLLRA-OH), for which, in data set [1] (IV), the clearance was 0.192 mL/min/kg and the half-life is 4.1 h. Further, in data set [1] (SC), the time to peak (Tmax) came out at 6 h, the bioavailability was 52%, the MRT amounted to 9.8 h and the half-life was 3.9 h. Moreover, the EC50 in data set [2] was determined as 0.35 nM. In addition, the EC50 in data set [3] came out at 0.16 nM.

Take `CCCCCCCCCCCCCCCC(=O)N[C@@H](CCC(=O)NCCCC[C@H](NC(=O)[C@H](CCC(=O)O)NC(=O)[C@H](CC(=O)O)NC(=O)[C@H](CC(C)C)NC(=O)[C@H](Cc1ccc(O)cc1)NC(=O)[C@H](CCCCN)NC(=O)[C@H](CO)NC(=O)[C@H](Cc1ccc(O)cc1)NC(=O)[C@H](CC(=O)O)NC(=O)[C@H](CO)NC(=O)[C@@H](NC(=O)[C@H](Cc1ccccc1)NC(=O)[C@@H](NC(=O)CNC(=O)[C@H](CCC(N)=O)NC(=O)C(C)(C)NC(=O)[C@@H](N)Cc1c[nH]cn1)[C@@H](C)O)[C@@H](C)O)C(=O)N[C@@H](C)C(=O)N[C@@H](C)C(=O)N[C@@H](CCCCN)C(=O)N[C@@H](CC(=O)O)C(=O)N[C@@H](Cc1ccccc1)C(=O)N[C@H](C(=O)N[C@@H](CCC(=O)O)C(=O)N[C@@H](Cc1c[nH]c2ccccc12)C(=O)N[C@@H](CC(C)C)C(=O)N[C@@H](CC(C)C)C(=O)N[C@@H](CO)C(=O)N[C@@H](C)C(N)=O)[C@@H](C)CC)C(=O)O` [Compound 4, H-H-Aib-QGTFTSDYSKYLDE-K(Hexadecanoyl-isoGlu)-AAKDFIEWLLSA-NH2] (H-H[Aib]QGTFTSDYSKYLDEK([γGlu-Palmitoyl])AAKDFIEWLLSA-NH2): in data set [1] (IV), the clearance is 0.185 mL/min/kg and the half-life is 7.4 h. In data set [1] (SC), the Tmax amounted to 4 h, the bioavailability is 53%, the MRT was determined as 12.5 h and the half-life is 6.4 h. Moreover, in data set [2], the EC50 was 1.56 nM. The EC50 in data set [3] is 0.35 nM.

Regarding `CCCCCCCCCCCCCCCC(=O)N[C@@H](CCC(=O)NCCCC[C@H](NC(=O)[C@H](CO)NC(=O)[C@H](CC(=O)O)NC(=O)[C@H](CC(C)C)NC(=O)[C@H](Cc1ccc(O)cc1)NC(=O)[C@H](CCCCN)NC(=O)[C@H](CO)NC(=O)[C@H](Cc1ccc(O)cc1)NC(=O)[C@H](CC(=O)O)NC(=O)[C@H](CO)NC(=O)[C@@H](NC(=O)[C@H](Cc1ccccc1)NC(=O)[C@@H](NC(=O)CNC(=O)[C@H](CCC(N)=O)NC(=O)C(C)(C)NC(=O)[C@@H](N)Cc1c[nH]cn1)[C@@H](C)O)[C@@H](C)O)C(=O)N[C@@H](C)C(=O)N[C@@H](C)C(=O)N[C@@H](Cc1c[nH]cn1)C(=O)N[C@@H](CC(=O)O)C(=O)N[C@@H](Cc1ccccc1)C(=O)N[C@H](C(=O)N[C@@H](CCC(=O)O)C(=O)N[C@@H](Cc1c[nH]c2ccccc12)C(=O)N[C@@H](CC(C)C)C(=O)N[C@@H](CCC(=O)O)C(=O)N[C@@H](CO)C(=O)N[C@@H](C)C(N)=O)C(C)C)C(=O)O` [Compound 5, H-H-Aib-QGTFTSDYSKYLDS-K(Hexadecanoyl-isoGlu)-AAHDFVEWLESA-NH2] (H-H[Aib]QGTFTSDYSKYLDSK([γGlu-Palmitoyl])AAHDFVEWLESA-NH2), in data set [1] (IV), the clearance is 0.185 mL/min/kg and the half-life is 4 h. Besides, in data set [1] (SC), the Tmax was 4 h, the bioavailability came to 81%, the MRT amounted to 7.6 h and the half-life was 3.8 h. Also, the EC50 in data set [2] amounted to 0.46 nM. Also, the EC50 in data set [3] was 0.03 nM.
